“Also recorded” adds a separate entry of the source. Read-outs that look alike come from different tables or passages of the source.
Tests used:
[1] = Phase I single- and multiple-rising dose study: plasma pharmacokinetics; parameters: species or system human; details: in vivo; for change of half-lives at different doses or with repeated dosing / Tmax / half-life: human; for half-life: t1/2
Source text: Total daily doses were double these amounts on BID dosing days. Primary outcomes were safety and pharmacokinetics of MET, its active metabolite (metyrapol), and OX. Safety measures included vital signs, ECGs an standard safety labs. Cortisol and other HPA axis parameters were monitored closely throughout the study.
They were not seeking to quit smoking. […] Primary outcomes were safety and pharmacokinetics.

[2] = test system: adult male Wistar rats; experiment: Intravenous cocaine self-administration under a multiple, alternating schedule of food reinforcement and cocaine self-administration; type: in vivo, rat
Method: Adult male Wistar rats were trained under a multiple, alternating schedule of cocaine and food self-administration. This schedule consisted of alternating periods of cocaine access and food reinforcement. In some instances, as described further below, three doses of cocaine (0.125, 0.25, or 0.50 mg/kg/infusion) were tested. Rats were also periodically trained with saline substitution (cocaine extinction) and food extinction during the same session.
More specifically, adult male Wistar rats were implanted with chronic jugular catheters. Following recovery from surgery, the rats were trained to respond under a multiple, alternating schedule of food reinforcement and cocaine self-administration. Food-maintained responding was used to control for the non-specific motor effects of the various treatments. During the food component of the schedule, the stimulus light located above the food response lever was illuminated to indicate the availability of food reinforcement. […] A 25-second timeout followed the delivery of each food pellet. During this timeout, the stimulus light was darkened and responses on the food lever were counted but had no scheduled consequences. Responding on the other (cocaine) lever during the food component also had no scheduled consequences. […] Following 15 minutes of access to food, all stimulus lights in the chamber were darkened for a 1-minute timeout. Following the timeout, the stimulus light above the cocaine response lever was illuminated to indicate the availability of cocaine (0.125, 0.25, or 0.5 mg/kg/infusion). […] A 20-second timeout period followed each infusion. […] After 15 minutes of access to cocaine and a 1-minute timeout, the rats were again allowed 15 minutes access to the food component of the schedule. Access to food and cocaine alternated in this manner every 15 minutes during the two hour behavioral sessions so that each rat was exposed to food and cocaine for four 15-minute periods each. Each behavioral session began with 15 minutes access to either food or cocaine, and this alternated daily. Stable baselines of responding were established when the total number of cocaine and food presentations, as well as the number of presentations during each of the four exposures each session, varied less than 10% for three consecutive sessions. At least three different doses of cocaine (e.g., 0.125, 0.25, and 0.5 mg/kg/infusion) were tested. Rats were first trained to self-administer 0.25 mg/kg/infusion, which was the standard dose of cocaine used. When responding stabilized, the dose was changed to 0.125 or 0.5 mg/kg/infusion as appropriate.
Once stable baselines of responding were obtained, dose-response curves for the various compounds were individually generated for each rat. Rats were treated with each dose at least twice with a minimum of two days of baseline cocaine self-administration interspersed between each test. Each group of rats was tested with only two of the test compounds to minimize potential carryover effects.

[3] = Pharmacokinetic interaction between cocaine, metyrapone and oxazepam (plasma concentrations, GCMS); type: in vivo, rat
Method: Thirty minutes following the drug combination or vehicle injection, the rats received intravenous injections of cocaine (0.25 mg/kg/infusion) every 2 minutes for 1 hour. After the final injection of cocaine, blood was collected from the catheter for the analysis of cocaine and its metabolites ecgonine methyl ester and benzoylecgonine. […] All drug concentrations were determined using GCMS procedures.

[4] = test system: adult male Wistar rats; experiment: Cue-induced reinstatement of extinguished cocaine seeking; type: in vivo, rat; details: for reinstatement of extinguished cocaine seeking: pretreatment, summary of the studies
Source text: Training to self-administer cocaine: In one model, rats were exposed to alternating 15-minute periods of access to cocaine self-administration and food reinforcement. Food was used to control for potential nonspecific, ataxis effects of the drugs and combinations. […] The other preclinical model that has been used is the cue-induced reinstatement of extinguished cocaine seeking model of relapse. In this model, rats are trained to self-administer cocaine and the ability of conditioned cues in the environment to reinstate extinguished responding is assessed and taken as a measure of relapse.
Cue-induced Reinstatement of Extinguished Cocaine Seeking: The experiments described herein were designed to investigate whether or not drug combinations identified as effective in reducing cocaine self-administration would also block the ability of conditioned cues to reinstate extinguished cocaine-seeking behavior. Adult male Wistar rats were implanted with chronic jugular catheters and trained to self-administer cocaine (0.25 mg/kg/infusion) by pressing one of the response levers in the experimental chamber (i.e., the “active” or “cocaine” lever) under a fixed-ratio […] schedule of reinforcement during daily 2-hour sessions conducted 5 days per week. At the start of each session, both levers were extended into the chamber and the stimulus light above the active lever was illuminated to indicate the availability of cocaine. […] A 20-second timeout period followed each infusion. The stimulus light above the active lever and the house light and tone compound stimulus were extinguished during the timeout period, and the light above the active lever was illuminated once the timeout ended. When responding on the active lever varied less than 20% for two consecutive days, the response requirement was increased to FR2. When similar stability was observed under the FR2 schedule or reinforcement, the response requirement was increased to the final ratio of four. The criteria for stable responding under the FR4 schedule of reinforcement was a minimum of 10 days of exposure to this schedule that concluded with at least three consecutive days when responding varied by less than 10%. […] Once stable cocaine self-administration was observed, rats were exposed to extinction; the rats were placed into the behavioral chambers, but responding on the “cocaine” (active) lever produced no programmed consequences. Extinction training continued until responding decreased to less than 20% of baseline self-administration. Then reinstatement testing commended. The rats were placed into the experimental chambers, both response levers were extended into the chamber, and the stimulus light above the “active” lever was illuminated as during self-administration training. […] Responding on the “active” lever during reinstatement testing was taken as, an index of cocaine-seeking behavior. Each experimental group consisted of […].

[5] = test system: rats; details: pretreatment, literature; cited from earlier work
[6] = test system: male Wistar rats; experiment: Forced Swim Test (FST), animal model of depression
[7] = test system: smokers; details: smoking cessation therapy; cited from earlier work
[8] = high dose, ip pretreatment, drug alone
[9] = low, ineffective dose, ip pretreatment, drug alone
[10] = pretreatment, summary of the studies

What does the source list for `CC(C)(c1cccnc1)C(O)c1cccnc1` (centres unmarked) [metyrapol]?
change of half-lives at different doses or with repeated dosing [1]: did not change substantially; Tmax ([1]; Tmax): 2 h; half-life [1]: 8.41 h

Which cocaine self-administration [2, 8] does the source give for `NCc1cc(=O)[nH]o1` [muscimol] here?
The cocaine self-administration was “reduced cocaine self-administration”.

And the cocaine self-administration [2, 9]?
The cocaine self-administration was “did not significantly affect”.

With `CC(C)(C(=O)c1cccnc1)c1cccnc1` [metyrapone] as the compound, how does the “influence on plasma concentrations of each other” value ([3]; rat, in vivo, ip) read?
The value was “did not influence plasma concentrations of each other”.

And the cocaine self-administration [2, 8]?
Its cocaine self-administration is “reduced cocaine self-administration”.

What about the cocaine self-administration [2, 9] of the same compound?
The cocaine self-administration was “did not significantly affect”.

What about the cocaine self-administration [2, 10] of the same compound?
The cocaine self-administration was “decrease cocaine self-administration”.

What about the “cue-induced reinstatement of extinguished cocaine seeking” value ([4]; chronic, 50 mg/kg, ip, once per day for 14 days) of the same compound?
Its value is “reduced cocaine seeking to levels seen when only saline was delivered”.

And the “reinstatement of extinguished cocaine seeking” value [4]?
Its value is “decrease”.

And the cocaine self-administration [5]?
The cocaine self-administration was “significant dose-related decreases”.

And the immobility time ([6]; chronic, individual drug, Met50 group)?
Its immobility time is “showed a lessening of immobility time”.

What about the “group means of immobility versus vehicle (tolerance)” value ([6]; chronically treated groups, drug alone) of the same compound?
The value was “equal to or exceeded the vehicle”.

What about the “change of half-lives at different doses or with repeated dosing” value [1] of the same compound?
The value was “did not change substantially”.

And the Tmax ([1]; Tmax)?
The Tmax was 1.5 h.

And the half-life [1]?
Its half-life is 2.04 h.

What about the “accumulation with repeated dosing” value [1] of the same compound?
The value was “Modest accumulation”.

What does the source list for `O=C1Nc2ccc(Cl)cc2C(c2ccccc2)=NC1O` (centres unmarked) [oxazepam]?
Tmax ([1]; human plasma, 270 mg Metyrapone/12 mg Oxazepam, Day 1, median, n 6, read-out: Tmax): 3.5 h; Tmax ([1]; human plasma, 270 mg Metyrapone/12 mg Oxazepam, Day 10, median, n 6, read-out: Tmax): 3 h; Tmax ([1]; human plasma, 540 mg Metyrapone/24 mg Oxazepam, Day 1, median, n 6, read-out: Tmax): 3 h; Tmax ([1]; human plasma, 540 mg Metyrapone/24 mg Oxazepam, Day 10, median, n 6, read-out: Tmax): 3 h; Tmax ([1]; human plasma, 720 mg Metyrapone/24 mg Oxazepam, Day 1, median, n 6, read-out: Tmax): 4 h; Tmax ([1]; human plasma, 720 mg Metyrapone/24 mg Oxazepam, Day 10, median, n 6, read-out: Tmax): 3 h

With `CCCCN(CC)c1nc(C)nc2c1c(C)cn2-c1c(C)cc(C)cc1C` [CP-154,526] as the compound, how does the cocaine self-administration [2, 8] read?
Its cocaine self-administration is “reduced cocaine self-administration”.

And the cocaine self-administration [2, 9]?
The cocaine self-administration was “did not significantly affect”.

What about the cocaine self-administration [2, 10] of the same compound?
Its cocaine self-administration is “decrease cocaine self-administration”.

And the “reinstatement of extinguished cocaine seeking” value [4]?
The value was “decrease”.

Which cocaine self-administration [2, 8] does the source give for `Cc1nnc2n1-c1ccc(Cl)cc1C(c1ccccc1)=NC2` [alprazolam] here?
The cocaine self-administration was “reduced cocaine self-administration”.

And the cocaine self-administration [2, 9]?
The cocaine self-administration was “did not significantly affect”.

What about the cocaine self-administration [2, 10] of the same compound?
Its cocaine self-administration is “decrease cocaine self-administration”.

What about the “reinstatement of extinguished cocaine seeking” value [4] of the same compound?
The value was “decrease”.

And the cocaine self-administration [5]?
Its cocaine self-administration is “reduced responding maintained by both food and cocaine”.

For `CC(=O)N1CCN(c2ccc(OCC3COC(Cn4ccnc4)(c4ccc(Cl)cc4Cl)O3)cc2)CC1` (centres unmarked) [ketoconazole], which cocaine self-administration [2, 9] is on record?
Its cocaine self-administration is “no effect; also recorded: did not significantly affect”.

And the cocaine self-administration [2, 10]?
Its cocaine self-administration is “decrease cocaine self-administration”.

And the “minimally effective dose that reduced cocaine self-administration by at least 50% without affecting food-maintained responding” value ([2]; rats)?
The value was 25 mg/kg.

What about the “reinstatement of extinguished cocaine seeking” value [4] of the same compound?
The value was “decrease”.

And the cocaine self-administration [5]?
The cocaine self-administration was “reduced cocaine self-administration”.

Which “one year quit rate” value [7] does the source give for `CC(NC(C)(C)C)C(=O)c1cccc(Cl)c1` (centres unmarked) [bupropion] here?
The value was 15.5%.

For `COC(=O)[C@H]1[C@@H](OC(=O)c2ccccc2)C[C@@H]2CC[C@H]1N2C` [cocaine], which “effect on plasma concentrations of metyrapone or oxazepam” value ([3]; rats, presence of cocaine) is on record?
The value was “did not affect the plasma concentrations of metyrapone or oxazepam”.

With `c1cnc2cc3c(cc2n1)[C@@H]1CNC[C@H]3C1` [varenicline] as the compound, how does the “one year quit rate” value [7] read?
The value was 22.5%.

— patent publication US20190275058A1, “COMPOSITIONS AND METHODS FOR TREATING ADDICTION OR SUBSTANCE USE DISORDERS” (EMBERA NEUROTHERAPEUTICS, INC., priority 2016, published 2019)
